The record followed here is PubChem BioAssay AID743470 (Broad Institute, 2014).

Assay [1] can be described thus: viability loss in HEK293 cells – cell-based, luminescence, dry powder, set 15, cytotoxicity control, dose response (AID 743470). Particulars: HEK293T viability, CellTiter-Glo ATP luminescence, 72 h. A general note: In ATP-based viability assays light output follows the ATP content of the culture.
Assay [2] concerns HEK293T viability, CellTiter-Glo ATP luminescence, 72 h. The description is as above.

Results filed as inconclusive are left out. The source made the active and inactive calls.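 How the source made its calls: active means fitted curve falls past -35% at a concentration up to twice the top valid dose; inconclusive means no clear call, values can overlap the other calls; inactive means signal rising instead of falling, plus the rest.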

On to `COC(=O)c1ccc(C2C(C#N)=C(N)Oc3cc(N)ccc32)cc1` (centres undefined), for which the activity change, negative = cytotoxicity in assay [1] (at 26 µM (top of the series)) was 19.4% (inactive).
Take `Cc1ccccc1C1C(C#N)=C(N)Oc2cc(N)ccc21` (centres undefined): the activity change, negative = cytotoxicity in assay [1] (at 26 µM (top of the series)) was -16.9% (inactive).
With `Nc1ncnc2c1c(-c1cccc(OCc3ccccc3)c1)cn2C1CC(CN2CCCC2)C1` (centres undefined), the AC35 in assay [2] is 9.93 µM.
Same read-out and setting: the same measure for `COc1ccc(S(=O)(=O)N2CC[C@@H]3[C@@H](CO)Nc4ccc(-c5ccc(C#N)cc5)cc4[C@@H]32)cc1`: 6.16 µM; for `CC(C)(O)CCc1ccc(O)c2c(=O)c3c(O)c4c(cc3oc12)O[C@H]1OC=C[C@@]41O`: 0.0808 µM.
With `CCC(C)(C)C(=O)O[C@H]1C[C@@H](C)C=C2C=C[C@H](C)[C@H](CC[C@@H]3C[C@@H](O)CC(=O)O3)[C@H]21`, the activity change, negative = cytotoxicity in assay [1] (at 6 µM (top of the series)) is 11.4% (inactive).
Turning to `COc1cc(C2C(C#N)=C(N)Oc3cc(N(C)C)ccc32)cc2c1OCO2` (centres undefined), in assay [2], the AC35 was 0.184 µM.
With `Cc1ccc([N+](=O)[O-])cc1S(=O)(=O)N(C)C`, the activity change, negative = cytotoxicity in assay [1] (at 26 µM (top of the series)) is -23.2% (inactive).
The same measure, in the same setting: the same measure for `CN(C(=O)CCCOc1ccc2[nH]c(=O)ccc2c1)C1CCCCC1`: 27% (inactive); for `COc1ccc(C2=Nn3c(nnc3-c3ccccc3)SC2)cc1OC`: -1.77% (inactive).
Regarding `Nc1ccn([C@@H]2O[C@H](CO)[C@H](O)C2O)c(=O)n1` (some centres undefined), in assay [2], the AC35 was 3.18 µM.
Turning to `N#CC1=C(N)Oc2cc3c(cc2C1c1cccc(Br)c1)OCO3` (centres undefined), the activity change, negative = cytotoxicity in assay [1] (at 26 µM (top of the series)) was -44.4% (inactive).
For the compound `CCN(CCO)CCCOc1ccc2c(Nc3cc(CC(=O)Nc4cccc(F)c4)[nH]n3)ncnc2c1`, in assay [1] (at 1.6 µM (top of the series)), the activity change, negative = cytotoxicity is 43.7% (inactive).
Turning to `Clc1ccccc1-c1nnc2n1N=C(c1ccc3c(c1)OCO3)CS2`, the AC35 in assay [2] is 3.54 µM.
As for `N#CC1=C(N)Oc2cc(N)ccc2C12C(=O)Nc1ccc(Br)cc12` (centres undefined), the activity change, negative = cytotoxicity in assay [1] (at 26 µM (top of the series)) is 5.19% (inactive).
In the case of `COc1ccc(S(=O)(=O)N(C(C)=O)c2ccc(OC(C)=O)c3ccccc23)cc1[N+](=O)[O-]`, the AC35 in assay [2] is 21.5 µM.
On to `C=C([C@@H](O)[C@@H](C)O)[C@@H](OC)[C@]1(C)Cc2cc3cc(O[C@H]4CC(OC5CC(O)C(O)C(C)O5)C(O)C(C)O4)cc(O)c3c(O)c2C(=O)[C@H]1OC1CC(OC2CC(OC3CC(C)(O)C(O)C(C)O3)C(O)C(C)O2)C(O)C(C)O1` (some centres undefined), for which the AC35 in assay [2] was 0.188 µM.
As for `N#CC1=C(N)Oc2cc(N)ccc2C1c1ccc(Cl)cc1` (centres undefined), the activity change, negative = cytotoxicity in assay [1] (at 26 µM (top of the series)) was -11.1% (inactive).
On the same count and under the same terms, the same measure for `Cc1ccc(C2C(C#N)=C(N)Oc3cc(N)ccc32)cc1` (centres undefined): -10.5% (inactive); for `COc1ccc(-c2cc(NC(C)=O)c3ncc(-c4ccc(OC)c(OC)c4)n3c2)cc1`: -25.2% (inactive).
On the same count and under the same terms, in the case of `CCCCc1ccc2nc(NC(=O)OC)[nH]c2c1` it was -29.4% (inactive); in that of `N#CC1=C(N)Oc2cc(N)ccc2C1c1ccc2ccccc2c1` (centres undefined), -9.63% (inactive).
`O=C(c1cc(Cc2n[nH]c(=O)c3ccccc23)ccc1F)N1CCN(C(=O)C2CC2)CC1`: the activity change, negative = cytotoxicity in assay [1] (at 110 µM (top of the series)) was 31.3% (inactive).
In the case of `COc1ccc(OC)c(-c2nnc3n2N=C(c2ccc(OC)c(OC)c2)CS3)c1`, the figures for the activity change, negative = cytotoxicity in assay [1] (at 12 µM (top of the series)) and in assay [1] (at 26 µM (top of the series)) were -29.9% (inactive) and -31.5% (inactive), respectively.
For `N#Cc1ccc(-c2ccc3c(c2)[C@H]2[C@H](CCN2S(=O)(=O)c2cccc(F)c2)[C@@H](CO)N3)cc1`, the activity change, negative = cytotoxicity in assay [1] (at 26 µM (top of the series)) was -39.9% (inactive).
`C[C@]1(c2nc3c(C(N)=O)cccc3[nH]2)CCCN1`: the activity change, negative = cytotoxicity in assay [1] (at 26 µM (top of the series)) was -21.6% (inactive).
As for `COc1cccc(S(=O)(=O)N2CC[C@@H]3[C@@H](CO)Nc4ccc(-c5ccc(C#N)cc5)cc4[C@@H]32)c1`, the activity change, negative = cytotoxicity in assay [1] (at 26 µM (top of the series)) is -26.5% (inactive).
On to `N#CC1=C(N)Oc2cc(N)ccc2C1c1cccc(Br)c1` (centres undefined), for which the activity change, negative = cytotoxicity in assay [1] (at 26 µM (top of the series)) was -38% (inactive).
In the case of `COc1ccc(-c2ccc3c(c2)[C@H]2[C@H](CCN2S(=O)(=O)c2ccc(OC)cc2)[C@@H](CO)N3C)cc1`, the activity change, negative = cytotoxicity in assay [1] (at 26 µM (top of the series)) is -44.3% (inactive).
Consider `COc1ccc(CNc2nc(N3CCC[C@H]3CO)ncc2C(=O)NCc2ncccn2)cc1Cl`, for which the activity change, negative = cytotoxicity in assay [1] (at 26 µM (top of the series)) was -1.87% (inactive).
With `Clc1ccc(-c2cnc3ccc(-c4ccccc4)cn23)cc1`, the activity change, negative = cytotoxicity in assay [1] (at 6 µM (top of the series)) is 7.25% (inactive).
Turning to `N#CC1=C(N)Oc2ccc3ccccc3c2C1c1cccc(F)c1` (centres undefined), the activity change, negative = cytotoxicity in assay [1] (at 26 µM (top of the series)) is -9.08% (inactive).
Consider `COc1ccc(C(=O)CC2(O)C(=O)Nc3c(Cl)ccc(Cl)c32)cc1` (centres undefined), for which the activity change, negative = cytotoxicity in assay [1] (at 12 µM (top of the series)) is -19.6% (inactive).
